The values below are quoted from earlier work in patent publication US9801874B2, “Method for the preparation of liposome encapsulated vincristine for therapeutic use” (Spectrum Pharmaceuticals, Inc., priority 2012, dated 2017).

The conditions of this data set: 1:1 sulfate salt, crystalline powder.

Where a name gives a salt, the structure may show the parent alone.

For the compound `CCC12C=CCN3CC[C@@]4(c5cc([C@@]6(C(=O)OC)CC7CN(CCc8c6[nH]c6ccccc86)C[C@](O)(CC)C7)c(OC)cc5N(C=O)[C@H]4[C@@](O)(C(=O)OC)C1OC(C)=O)C32` (stereo partly shown) [Vincristine sulfate, 22-oxovincaleukoblastine], the solubility in water result is reported as “soluble in water”.
